Laboratory results published in patent publication US8026218B2, “Bifunctional analgesic compounds for opioid receptor agonists and neurokinin-1 receptor antagonists” (The University of Arizona, priority 2006, dated 2011).
Where two headings read alike, the source gives them in different places. Peptide text beside a SMILES is read from it.

Legend:
μ opioid receptors (GPI) = assay: Guinea pig isolated ileum (GPI) assay, opioid agonist;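 as to all read-outs here: inhibition of electrically evoked contractions (0.1 Hz, 0.4 msec, supramaximal voltage) in organ baths at 37 °C, contraction height 3 min after each cumulative dose versus the 1 min before dosing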; details: for Opioid agonist GPI (μ), % inh. / GPI/LMMP opioid(mu) agonist, % at 1 uM: at 1 uM; for Opioid agonist GPI (μ), % inh.: no antagonist activity observed at the tested concentration; for agonist effect in the functional assay using GPI: at the concentration of 1 μM, words
[1] = target: T1, human δ opioid receptors (hDOR) (Homo sapiens, UniProt P41143); assay: [35S]GTP-γ-S binding assay, hDOR; type: biochemical
T1 construct: expressed in transfected cells; host or cells: HN9.10 neuroblastoma cell line, pCDNA3, neomycin-selected clones
T1 sequence (P41143 whole entry): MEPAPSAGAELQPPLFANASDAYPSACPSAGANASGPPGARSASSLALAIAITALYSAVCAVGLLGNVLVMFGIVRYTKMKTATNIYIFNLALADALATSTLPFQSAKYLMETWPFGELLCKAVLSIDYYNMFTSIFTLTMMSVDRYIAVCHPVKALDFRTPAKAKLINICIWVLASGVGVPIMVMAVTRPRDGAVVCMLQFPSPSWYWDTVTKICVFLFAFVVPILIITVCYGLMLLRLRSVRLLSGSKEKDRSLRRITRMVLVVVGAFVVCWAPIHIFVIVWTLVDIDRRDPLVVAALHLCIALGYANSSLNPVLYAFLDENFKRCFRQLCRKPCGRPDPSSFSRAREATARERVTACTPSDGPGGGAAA

[2] = target: T1, human δ opioid receptors (hDOR); assay: Radioligand competition binding, [3H]DPDPE, hDOR membranes
[3] = target: T2, rat μ opioid receptors (rMOR) (Rattus norvegicus, UniProt P33535); assay: biochemical; type: biochemical
T2 construct: expressed in transfected cells; host or cells: HN9.10 neuroblastoma cell line, pCDNA3, neomycin-selected clones
T2 sequence (P33535 whole entry): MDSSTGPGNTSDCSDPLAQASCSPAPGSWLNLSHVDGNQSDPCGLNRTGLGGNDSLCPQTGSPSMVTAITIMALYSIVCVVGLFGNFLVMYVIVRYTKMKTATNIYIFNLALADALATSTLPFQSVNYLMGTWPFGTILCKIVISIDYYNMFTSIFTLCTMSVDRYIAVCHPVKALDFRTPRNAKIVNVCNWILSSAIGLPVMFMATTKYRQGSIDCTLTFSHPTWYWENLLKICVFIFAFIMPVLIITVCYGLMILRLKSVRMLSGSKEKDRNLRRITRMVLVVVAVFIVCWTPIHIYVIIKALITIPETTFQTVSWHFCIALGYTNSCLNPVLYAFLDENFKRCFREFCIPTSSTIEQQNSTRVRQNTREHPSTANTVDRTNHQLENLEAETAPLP

[4] = target: T3, Substance P receptors (guinea pig NK1) (Cavia porcellus, UniProt P30547); assay: Guinea pig isolated ileum (GPI) assay with substance P stimulation in presence of 1 μM naloxone; details: for Kb: Substance P antagonist, GPI, Ke (nM), Table 22; for GPI/LMMP SP Agonist (IC50; nM): Table 39
T3 construct: from tissue; host or cells: guinea pig (Hartley) ileum LMMP, 1 μM naloxone present
T3 sequence (P30547 whole entry): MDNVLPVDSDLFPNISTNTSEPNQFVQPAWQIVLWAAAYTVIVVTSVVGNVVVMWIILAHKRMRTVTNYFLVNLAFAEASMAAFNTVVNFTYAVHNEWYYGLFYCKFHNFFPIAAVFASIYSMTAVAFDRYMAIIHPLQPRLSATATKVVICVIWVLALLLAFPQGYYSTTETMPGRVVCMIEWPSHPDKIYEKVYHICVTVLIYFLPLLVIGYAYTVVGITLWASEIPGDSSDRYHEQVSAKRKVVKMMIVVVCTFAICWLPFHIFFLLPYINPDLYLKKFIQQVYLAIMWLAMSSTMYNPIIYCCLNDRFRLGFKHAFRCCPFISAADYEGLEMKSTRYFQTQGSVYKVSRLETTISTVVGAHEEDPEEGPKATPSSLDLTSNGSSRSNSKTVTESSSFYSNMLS
Description: Testing stopped at 1 mM concentrations of the test compound.
Analysis of GPI and MVD assays. For opioid data analysis, percentage inhibition was calculated using the average tissue contraction height for 1 min preceding the addition of the agonist divided by the contraction height 3 min after exposure to the dose of agonist. […] IC50 and Emax estimates were determined by computerized nonlinear least-squares analysis (the pharmacological statistics package FlashCalc: Dr. Michael Ossipov, University of Arizona, Tucson, Ariz.). […] A50 values represent the mean of not less than 4 tissues. A50 and Emax estimates were determined by computerized nonlinear least-squares analysis (FlashCalc).

δ opioid receptors (MVD) = target: T4, δ opioid receptors (MVD) (Mus musculus, UniProt P32300); assay: Mouse isolated vas deferens (MVD) assay, opioid agonist
T4 construct: from tissue; host or cells: mouse (ICR) isolated vas deferens
T4 sequence (P32300 whole entry): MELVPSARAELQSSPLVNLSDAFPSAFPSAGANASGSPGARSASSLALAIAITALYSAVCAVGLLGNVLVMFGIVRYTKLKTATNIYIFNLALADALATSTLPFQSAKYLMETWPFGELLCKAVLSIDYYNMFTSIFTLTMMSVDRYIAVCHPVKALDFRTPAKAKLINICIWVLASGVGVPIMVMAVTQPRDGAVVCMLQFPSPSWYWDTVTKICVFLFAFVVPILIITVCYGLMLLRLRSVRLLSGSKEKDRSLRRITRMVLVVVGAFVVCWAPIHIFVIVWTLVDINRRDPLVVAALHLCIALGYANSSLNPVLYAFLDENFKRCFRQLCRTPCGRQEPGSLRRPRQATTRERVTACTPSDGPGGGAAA

[5] = In vitro stability in rat plasma at 37° C.; type: in vitro ADME; details: rat, rat plasma, read-out: half life (T1/2) in rat plasma (converted)
Description: The derivative compounds were tested for their metabolite stability. The compounds were incubated in rat plasma at 37° C., and aliquots were withdrawn at various time points and analyzed by HPLC to determine the concentration of remaining compound derivatives (FIGS. 15-16, 36, and 47-48).
In Vitro Stability of compound derivatives in Rat Plasm (Yamamoto, 2007, J. Am. Chem. Soc. submitted). Stock solution of compounds (50 mg/mL in DMSO) were diluted 1000-fold into rat plasma (Lot 24927, Pel-Freez Biologicals, Rogers, Ak.) to result in an incubation concentration of 50 μg/mL. All samples were incubated at 37° C. for 6 h, and 200 μL of aliquots were withdrawn at 1 h, 2 h, 4 h and 6 h. […] The samples were run in triplicate. Discussion.

[6] = target: T2, rat μ opioid receptors (rMOR); assay: Radioligand competition binding, [3H]DAMGO, rMOR membranes; details: for Ki(μ)/Ki(δ): Table 20, ratio rMOR Ki / hDOR Ki
rat NK1 (rNK1) receptor = target: T5, rat NK1 (rNK1) receptor (Rattus norvegicus, UniProt P14600); assay: Radioligand competition binding, [3H]substance P, rNK1/CHO membranes; details: for IC50: LogIC50, rNK1, [3H]Substance P, logarithm of IC50 (negative); for Ki(hNK1)/Ki(rNK1): species ratio
T5 construct: expressed in transfected cells; host or cells: CHO (rNK-1/CHO cell line from Dr. James Krause)
T5 sequence (P14600 whole entry): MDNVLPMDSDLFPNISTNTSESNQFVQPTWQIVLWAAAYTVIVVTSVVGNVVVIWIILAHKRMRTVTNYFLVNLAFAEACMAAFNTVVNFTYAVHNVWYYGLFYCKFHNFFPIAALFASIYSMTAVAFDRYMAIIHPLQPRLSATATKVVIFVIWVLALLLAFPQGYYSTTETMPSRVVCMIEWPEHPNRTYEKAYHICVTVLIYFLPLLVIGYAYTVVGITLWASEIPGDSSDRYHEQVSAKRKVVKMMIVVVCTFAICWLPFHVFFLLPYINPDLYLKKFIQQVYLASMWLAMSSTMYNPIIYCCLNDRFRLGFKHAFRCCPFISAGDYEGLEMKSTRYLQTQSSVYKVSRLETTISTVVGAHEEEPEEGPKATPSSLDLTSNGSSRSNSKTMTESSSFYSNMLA

[7] = target: T6, human NK1 receptor (hNK1) (Homo sapiens, UniProt P25103); assay: Radioligand competition binding, [3H]-Substance P, hNK1
T6 construct: expressed in transfected cells
T6 sequence (P25103 whole entry): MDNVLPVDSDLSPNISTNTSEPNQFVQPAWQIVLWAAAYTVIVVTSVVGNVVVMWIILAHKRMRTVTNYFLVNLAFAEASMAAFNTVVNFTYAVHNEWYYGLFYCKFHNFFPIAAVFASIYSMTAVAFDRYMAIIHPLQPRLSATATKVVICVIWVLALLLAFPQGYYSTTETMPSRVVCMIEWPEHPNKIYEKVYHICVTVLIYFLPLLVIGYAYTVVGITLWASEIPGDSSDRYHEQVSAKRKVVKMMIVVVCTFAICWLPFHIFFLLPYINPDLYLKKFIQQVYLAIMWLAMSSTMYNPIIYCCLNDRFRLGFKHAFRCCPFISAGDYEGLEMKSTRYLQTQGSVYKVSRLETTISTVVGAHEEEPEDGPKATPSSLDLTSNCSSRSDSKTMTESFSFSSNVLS

[8] = Table 39, read-out: GPI/LMMP opioid(mu) agonist (IC50; nM)
[9] = Table 21, HN9.10 cell, read-out: EC50 (nM), hDOR
[10] = Table 39, read-out: GTP binding hDOR EC50
[11] = Table 39, read-out: GTP binding hDOR Emax
[12] = Table 21, net total bound/basal binding × 100, read-out: Emax (%), rMOR
[13] = Table 39, read-out: GTP binding rMOR EC50
[14] = Table 39, read-out: GTP binding rMOR Emax
[15] = net total bound/basal binding × 100, read-out: Emax, rMOR, [35S]GTP-γ-S binding
[16] = in the presence of 1 μM naloxone
[17] = electrically stimulated isolated tissue, read-out: MVD (δ), IC50
[18] = Table 39, read-out: Affinity rNK1 (Ki; nM)
[19] = Table 21, net total bound/basal binding × 100, read-out: Emax (%), hDOR
[20] = net total bound/basal binding × 100, read-out: Emax, hDOR, [35S]GTP-γ-S binding
[21] = read-out: GTP binding rMOR EC50
[22] = read-out: GTP binding rMOR Emax
[23] = Table 39, read-out: MVD opioid(delta) agonist (IC50; nM)

| SMILES | IC50 (μ opioid receptors (GPI); [8]) [nM] | EC50 [1, 9] [nM] | EC50 [1, 10] [nM] | Emax [1, 11] [%] | IC50 [2] [nM] | Emax [3, 12] [%] | EC50 [3, 13] [nM] | Emax [3, 14] [%] | Emax [3, 15] [%] | IC50 (δ opioid receptors (MVD); [17]) [nM] | half-life at 50 μg/mL [5] [h] | IC50 [6] [nM] | Ki ([6]; read-out: Ki, rMOR, [3H]DAMGO) [nM] | IC50 (rat NK1 (rNK1) receptor; Table 20, CHO cell membranes) [nM] | Ki (rat NK1 (rNK1) receptor; [18]) [nM] | IC50 [7] [nM] | Ki ([7]; read-out: Ki, hNK1) [nM] | Emax [1, 19] [%] | Emax [1, 20] [%] | EC50 ([3]; LogEC50, rMOR) [nM] | other results |
| --- | --- | --- | --- | --- | --- | --- | --- | --- | --- | --- | --- | --- | --- | --- | --- | --- | --- | --- | --- | --- | --- |
| CC(C)C[C@H](NC(=O)[C@@H]1CCCN1C(=O)[C@H]1CSSC[C@@H](NC(=O)[C@@H](N)Cc2ccc(O)cc2)C(=O)NCC(=O)N[C@@H](Cc2ccccc2)C(=O)N1)C(=O)N[C@@H](Cc1c[nH]c2ccccc12)C(=O)NCc1cc(C(F)(F)F)cc(C(F)(F)F)c1 [TY037, [D-Cys^2, D-Cys^5]TY027] | 284 | 14 | 98.2 | 26 | 15.8 | 12 | 52.9 | 8 | < 20 | 8.3 | 3.7 | 126 | 52 | 126 | 45.5 |  |  |  |  |  | IC50 (μ opioid receptors (GPI); electrically stimulated isolated tissue, read-out: GPI (μ), IC50): 280 nM; Ki ([2]; Table 39, read-out: Affinity hDOR (Ki; nM)): 7.8 nM; Ki ([2]; read-out: Ki (nM), hDOR, [3H]DPDPE, Table 20, HN9.10 cell membranes): 7.8 nM; Substance P antagonist, GPI, Ke [4, 16]: 4.7 nM |
| CCCC[C@@H]1NC(=O)[C@H](Cc2ccccc2)NC(=O)CNC(=O)[C@H](NC(=O)[C@@H](N)Cc2ccc(O)cc2)CSSC[C@@H](C(=O)N[C@@H](Cc2c[nH]c3ccccc23)C(=O)NCc2cc(C(F)(F)F)cc(C(F)(F)F)c2)NC(=O)[C@@H]2CCCN2C1=O [TY035, [D-Cys^2, Cys^7]TY027] (HELM PEPTIDE1{Y.[dC].G.F.[Nle].P.C.W.[FC(F)(F)c1cc(CN[*:1])cc(C(F)(F)F)c1]}$PEPTIDE1,PEPTIDE1,2:R3-7:R3$$$V2.0; N-terminus assumed) | 1010 | 0.02 | 0.02 | 11 | 2.51 |  |  |  |  |  | > 6 | 158 | 79 | 100 | 30 | 0.2 | 0.1 | 11 | < 20 | 39.8 | IC50 (μ opioid receptors (GPI); Table 22, electrically stimulated isolated tissue, read-out: Opioid agonist GPI (μ), IC50): 1000 ± 200 nM; EC50 ([1]; Table 21, logarithm of EC50 (negative), HN9.10 cell, read-out: LogEC50, hDOR (converted)): 0.0158 nM; Ki ([2]; read-out: Ki, hDOR, [3H]DPDPE): 1.3 nM; EC50 ([3]; read-out: EC50 (nM), rMOR): 36 nM; Emax ([3]; read-out: Emax (%), rMOR): 41%; EC50 [3, 21]: 36 nM; Emax [3, 22]: 39%; Kb [4, 16]: 2.2 ± 0.6 nM; GPI/LMMP SP Agonist (IC50; nM) ([4]; at 30 nM): none; IC50 (δ opioid receptors (MVD); Table 22, electrically stimulated isolated tissue, read-out: Opioid agonist MVD (δ), IC50): 85 ± 18 nM; IC50 (δ opioid receptors (MVD); [23]): 84.7 nM; Ki(μ)/Ki(δ) [6]: 61; Ki(hNK1)/Ki(rNK1) (rat NK1 (rNK1) receptor; Table 20): 30; Ki (rat NK1 (rNK1) receptor; read-out: Ki (nM), rNK1, [3H]Substance P, Table 20, CHO cell membranes): 30 nM |
| CCCC[C@@H]1NC(=O)[C@H](Cc2ccccc2)NC(=O)CNC(=O)[C@H](NC(=O)[C@@H](N)Cc2ccc(O)cc2)CSSC[C@H](C(=O)N[C@@H](Cc2c[nH]c3ccccc23)C(=O)NCc2cc(C(F)(F)F)cc(C(F)(F)F)c2)NC(=O)[C@@H]2CCCN2C1=O [TY038, [D-Cys^2, D-Cys^7]TY027] (HELM PEPTIDE1{Y.[dC].G.F.[Nle].P.[dC].W.[FC(F)(F)c1cc(CN[*:1])cc(C(F)(F)F)c1]}$PEPTIDE1,PEPTIDE1,2:R3-7:R3$$$V2.0; N-terminus assumed) |  |  | 14 | 87 | 126 |  |  |  |  | 19 | > 6 | 1.58 | 160 | 20 | 7.11 | 0.501 | 0.25 | 87 | 87 | 20 | Ki [7]: 0.24 nM; Opioid agonist GPI (μ), % inh. (μ opioid receptors (GPI); Table 22): 3% inh. at 1 uM^d; GPI/LMMP opioid(mu) Antagonist (μ opioid receptors (GPI); Table 39): none; GPI/LMMP opioid(mu) agonist, % at 1 uM (μ opioid receptors (GPI); Table 39): 3% at; agonist effect in the functional assay using GPI (μ opioid receptors (GPI)): nearly no agonist effect; Ki [2]: 55.5 nM; Emax ([3]; read-out: Emax (%), rMOR): 12%; Emax ([3]; read-out: Emax, rMOR, [35S]GTP-γ-S binding): < 20%; EC50 [3, 21]: 21.7 nM; Emax [3, 22]: 11%; Kb [4, 16]: 12 ± 1.4 nM; GPI/LMMP SP Agonist (IC50; nM) ([4]; at 100 nM): none; IC50 (δ opioid receptors (MVD); [23]): 18.9 nM; Ki [6]: 156 nM; Ki(μ)/Ki(δ) [6]: 2.9; Ki(hNK1)/Ki(rNK1) (rat NK1 (rNK1) receptor; Table 20): 28; Ki (rat NK1 (rNK1) receptor; read-out: Ki, rNK1): 7.1 nM |
| CC(C)C[C@H](NC(=O)[C@@H]1CCCN1C(=O)[C@@H]1CSSC[C@@H](NC(=O)[C@@H](N)Cc2ccc(O)cc2)C(=O)NCC(=O)N[C@@H](Cc2ccccc2)C(=O)N1)C(=O)N[C@@H](Cc1c[nH]c2ccccc12)C(=O)NCc1cc(C(F)(F)F)cc(C(F)(F)F)c1 [TY039] |  | 0.9 | 50.9 | 37 | 25.1 | 17 | 118 | 20 | < 20 | 73 | > 6 | 398 | 200 | 1580 |  |  |  | 37 |  |  | Opioid agonist GPI (μ), % inh. (μ opioid receptors (GPI); Table 22): 10% inh. at 1 uM^d; GPI/LMMP opioid(mu) Antagonist (μ opioid receptors (GPI); Table 39): none; GPI/LMMP opioid(mu) agonist, % at 1 uM (μ opioid receptors (GPI); Table 39): 10.1% at; agonist effect in the functional assay using GPI (μ opioid receptors (GPI)): nearly no agonist effect; EC50 ([3]; Table 21, HN9.10 cell, read-out: EC50 (nM), rMOR): 118 nM; EC50 ([3]; Table 21, logarithm of EC50 (negative), HN9.10 cell, read-out: LogEC50, rMOR (converted)): 126 nM |
